Assay results published in ChEMBL document CHEMBL5316263, “Structure-Based Discovery of Selective Histone Deacetylase 8 Degraders with Potent Anticancer Activity” (J Med Chem, 2023).
Values belong to the compound of their own block, whether it stands above or below them. Activity calls are given as the source filed them. The rule behind the calls is not given here.

Columns and labels:
[1] = target: T1, von Hippel-Lindau disease tumor suppressor/Histone deacetylase 8 (Homo sapiens) (UniProt Q9BY41+P40337); experiment: Protac activity at VHL/HDAC8 in human A549 cells assessed as degradation of HDAC8 at 200 nM measured after 20 hrs by Western blot analysis relative to control; format: cell-based
T1 sequence (P40337 whole entry, looked up, one chain of several): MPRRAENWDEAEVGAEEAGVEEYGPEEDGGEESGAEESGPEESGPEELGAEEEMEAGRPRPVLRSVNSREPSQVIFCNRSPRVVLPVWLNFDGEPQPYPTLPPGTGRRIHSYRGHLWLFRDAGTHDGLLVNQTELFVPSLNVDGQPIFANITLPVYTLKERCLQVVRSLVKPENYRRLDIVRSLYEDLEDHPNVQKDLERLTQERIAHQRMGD

[2] = target: T1, von Hippel-Lindau disease tumor suppressor/Histone deacetylase 8 (Homo sapiens); experiment: Protac activity at VHL/HDAC8 in human A549 cells assessed as degradation of HDAC8 at 2 uM measured after 20 hrs by Western blot analysis relative to control; format: cell-based
[3] = target: Protein cereblon/Histone deacetylase 8 (Homo sapiens, UniProt Q96SW2+Q9BY41); experiment: Protac activity at CRBN/HDAC8 in human A549 cells assessed as degradation of HDAC8 incubated for 20 hrs by ELISA method; format: cell-based
Protein cereblon/Histone deacetylase 8, sequence (Q96SW2 whole entry, one chain of several): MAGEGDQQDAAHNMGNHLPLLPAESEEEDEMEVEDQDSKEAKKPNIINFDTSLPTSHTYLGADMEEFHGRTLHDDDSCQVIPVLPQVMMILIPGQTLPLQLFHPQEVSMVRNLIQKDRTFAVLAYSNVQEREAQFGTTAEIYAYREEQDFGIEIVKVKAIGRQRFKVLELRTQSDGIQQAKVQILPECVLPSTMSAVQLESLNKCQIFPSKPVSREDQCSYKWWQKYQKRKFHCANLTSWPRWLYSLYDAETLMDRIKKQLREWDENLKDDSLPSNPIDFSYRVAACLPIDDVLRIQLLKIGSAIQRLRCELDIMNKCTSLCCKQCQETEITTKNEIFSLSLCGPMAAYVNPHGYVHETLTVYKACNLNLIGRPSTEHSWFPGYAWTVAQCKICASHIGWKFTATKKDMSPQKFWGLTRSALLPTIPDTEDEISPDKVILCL

[4] = target: T2, Protein cereblon/Histone deacetylase 8 (Homo sapiens) (UniProt Q9BY41+Q96SW2); experiment: Protac activity at CRBN/HDAC8 in human A549 cells assessed as degradation of HDAC8 at 2 uM measured after 20 hrs by Western blot analysis relative to control; format: cell-based
T2 sequence (Q96SW2 whole entry, looked up, one chain of several): as the sequence (Q96SW2 whole entry, one chain of several) above

A549 [5] = experiment: Antiproliferative activity against human A549 cells assessed as inhibition of cell growth measured after 72 hrs by CCK-8 method; format: functional, cell-based; settings: for IC50: A549, 72 h; for Activity: dose <= 1.5 µM
[6] = target: Cereblon/Ikaros (Homo sapiens) (UniProt Q96SW2+Q13422); experiment: Protac activity at CRBN/IKZF1 in human A549 cells assessed as reduction in IKZF1 protein level at 10 uM by Western blot analysis; format: cell-based
[7] = target: T2, Protein cereblon/Histone deacetylase 8 (Homo sapiens); experiment: Protac activity at CRBN/HDAC8 in human A549 cells assessed as reduction in HDAC8 protein level at 0.1 to 10 uM by Western blot analysis; format: cell-based; settings: dose 0.1-10 µM
[8] = target: T2, Protein cereblon/Histone deacetylase 8 (Homo sapiens); experiment: Protac activity at CRBN/HDAC8 in human A549 cells assessed as maximum degradation at 10 uM incubated for 20 hrs by ELISA method relative to control; format: cell-based
[9] = target: T2, Protein cereblon/Histone deacetylase 8 (Homo sapiens); experiment: Protac activity at CRBN/HDAC8 in human A549 cells assessed as degradation of HDAC8 at 200 nM measured after 20 hrs by Western blot analysis relative to control; format: cell-based
A549 [10] = experiment: Induction of apoptosis in human A549 cells assessed as late apoptotic cells at 10 uM measured after 72 hrs by annexin V-FITC staining based flow cytometry (reference value: 0.20%); format: functional
[11] = target: T3, Histone deacetylase 8 (Homo sapiens) (UniProt Q9BY41); experiment: Induction of degradation in HDAC8 in human A549 cells at 2 microM measured after 20 hrs by Western blot analysis relative to control; format: cell-based
T3 sequence (whole entry): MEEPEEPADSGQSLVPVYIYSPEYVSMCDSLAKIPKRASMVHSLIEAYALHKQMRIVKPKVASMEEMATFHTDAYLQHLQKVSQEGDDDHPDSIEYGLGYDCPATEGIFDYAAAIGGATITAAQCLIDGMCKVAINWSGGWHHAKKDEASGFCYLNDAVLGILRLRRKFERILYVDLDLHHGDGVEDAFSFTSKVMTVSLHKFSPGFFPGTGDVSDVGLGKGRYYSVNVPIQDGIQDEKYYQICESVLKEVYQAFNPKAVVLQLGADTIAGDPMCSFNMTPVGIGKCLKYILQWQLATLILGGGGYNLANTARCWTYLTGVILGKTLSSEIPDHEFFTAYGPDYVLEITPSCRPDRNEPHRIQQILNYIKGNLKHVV

A549 [12] = experiment: Induction of apoptosis in human A549 cells assessed as viable cells at 30 uM measured after 72 hrs by annexin V-FITC staining based flow cytometry (reference value: 99.1%); format: functional; settings: read-out: Activity
A549 [13] = experiment: Induction of apoptosis in human A549 cells assessed as early apoptotic cells at 20 uM measured after 72 hrs by annexin V-FITC staining based flow cytometry (reference value: 0.13%); format: functional
A549 [14] = experiment: Antiproliferative activity against human A549 cells assessed as inhibition of cell growth measured after 72 hrs under irradiation by CCK-8 method; format: functional, cell-based; settings: A549, light or radiation study
A549 [15] = experiment: Induction of apoptosis in human A549 cells assessed as late apoptotic cells at 30 uM measured after 72 hrs by annexin V-FITC staining based flow cytometry (reference value: 0.20%); format: functional
A549 [16] = experiment: Induction of apoptosis in human A549 cells assessed as early apoptotic cells at 30 uM measured after 72 hrs by annexin V-FITC staining based flow cytometry (reference value: 0.13%); format: functional
A549 [17] = experiment: Induction of apoptosis in human A549 cells assessed as viable cells at 10 uM measured after 72 hrs by annexin V-FITC staining based flow cytometry (reference value: 99.1%); format: functional; settings: read-out: Activity
A549 [18] = experiment: Induction of apoptosis in human A549 cells assessed as early apoptotic cells at 40 uM measured after 72 hrs by annexin V-FITC staining based flow cytometry (reference value: 0.13%); format: functional
A549 [19] = experiment: Induction of apoptosis in human A549 cells assessed as necrotic cells at 40 uM measured after 72 hrs by annexin V-FITC staining based flow cytometry (reference value: 0.005%); format: functional
A549 [20] = experiment: Induction of apoptosis in human A549 cells assessed as early apoptotic cells at 10 uM measured after 72 hrs by annexin V-FITC staining based flow cytometry (reference value: 0.13%); format: functional
A549 [21] = experiment: Induction of apoptosis in human A549 cells assessed as necrotic cells at 20 uM measured after 72 hrs by annexin V-FITC staining based flow cytometry (reference value: 0.005%); format: functional
[22] = target: T3, Histone deacetylase 8 (Homo sapiens); experiment: Induction of degradation in HDAC8 in human A549 cells at 200 nM measured after 20 hrs by Western blot analysis relative to control; format: cell-based
A549 [23] = experiment: Induction of apoptosis in human A549 cells assessed as necrotic cells at 30 uM measured after 72 hrs by annexin V-FITC staining based flow cytometry (reference value: 0.005%); format: functional
A549 [24] = experiment: Induction of apoptosis in human A549 cells assessed as late apoptotic cells at 20 uM measured after 72 hrs by annexin V-FITC staining based flow cytometry (reference value: 0.20%); format: functional
A549 [25] = experiment: Induction of apoptosis in human A549 cells assessed as viable cells at 40 uM measured after 72 hrs by annexin V-FITC staining based flow cytometry (reference value: 99.1%); format: functional; settings: read-out: Activity
A549 [26] = experiment: Induction of apoptosis in human A549 cells assessed as viable cells at 20 uM measured after 72 hrs by annexin V-FITC staining based flow cytometry (reference value: 99.1%); format: functional; settings: read-out: Activity
A549 [27] = experiment: Induction of apoptosis in human A549 cells assessed as necrotic cells at 10 uM measured after 72 hrs by annexin V-FITC staining based flow cytometry (reference value: 0.005%); format: functional
A549 [28] = experiment: Induction of apoptosis in human A549 cells assessed as late apoptotic cells at 40 uM measured after 72 hrs by annexin V-FITC staining based flow cytometry (reference value: 0.20%); format: functional
[29] = target: T3, Histone deacetylase 8 (Homo sapiens); experiment: Induction of degradation in HDAC8 in human A549 cells at 10 uM incubated for 2 hrs by Western blot analysis; format: cell-based

Compound: Cc1ncsc1-c1ccc([C@H](C)NC(=O)[C@@H]2C[C@@H](O)CN2C(=O)[C@@H](NC(=O)CCCOc2ccc(Cn3ccc4ccc(C(=O)NO)cc43)cc2)C(C)(C)C)cc1
- Activity [1]: 15.9%
- Activity [2]: 26.4%

Compound: O=C1CCC(N2C(=O)c3cccc(NCc4cn(CCCCCOc5ccc(Cn6ccc7ccc(C(=O)NO)cc76)cc5)nn4)c3C2=O)C(=O)N1 (centres undefined)
- EC50 [3]: 0.62 µM
- Activity [4]: 85.9%
- IC50 (A549 [5]): 12.5 µM
- Activity (A549 [5]): Dose-Dependent Effect
- Activity [6]: Active
- Activity [7]: Active
- Emax [8]: 90.2%
- Activity [9]: 39.5%

Compound: Cc1ncsc1-c1ccc([C@H](C)NC(=O)[C@@H]2C[C@@H](O)CN2C(=O)[C@@H](NC(=O)CCCCCOc2ccc(Cn3ccc4ccc(C(=O)NO)cc43)cc2)C(C)(C)C)cc1
- Activity [1]: 27.3%
- Activity [2]: 51.4%

Compound: COc1ccc(Cn2ccc3ccc(C(=O)NO)cc32)cc1
- Activity (A549 [10]): 11.7%
- Activity [11]: 5%
- viability at 30 µM (A549 [12]): 24.6%
- Activity (A549 [13]): 50.7%
- IC50 (A549 [14]): 13.1 µM
- Activity (A549 [15]): 12%
- Activity (A549 [16]): 63%
- viability at 10 µM (A549 [17]): 45.6%
- Activity (A549 [18]): 46.3%
- IC50 (A549 [5]): 15.8 µM
- Activity (A549 [19]): 1.21%
- Activity (A549 [20]): 42%
- Activity (A549 [21]): 0.67%
- Activity [22]: 3.6%
- Activity (A549 [23]): 0.47%
- Activity (A549 [24]): 9.71%
- viability at 40 µM (A549 [25]): 28.6%
- viability at 20 µM (A549 [26]): 29%
- Activity (A549 [27]): 0.7%
- Activity (A549 [28]): 24.9%

Compound: Nc1cccc2c1C(=O)N(C1CCC(=O)NC1=O)C2=O (centres undefined)
- Activity [29]: inactive
- Activity [11]: 12.8%
- Activity [22]: 9.5%

Compound: O=C1CCC(N2C(=O)c3cccc(NCc4cn(CCCCOc5ccc(Cn6ccc7ccc(C(=O)NO)cc76)cc5)nn4)c3C2=O)C(=O)N1 (centres undefined)
- EC50 [3]: 0.47 µM
- Activity [4]: 83.6%
- IC50 (A549 [5]): 7.11 µM
- Activity (A549 [5]): Dose-Dependent Effect
- Activity [6]: Active
- Activity [7]: Active
- Emax [8]: 90.2%
- Activity [9]: 30.6%

Further lines, results first:

- Activity [4]: 71.2%
- Activity [9]: 29.4%
Compound: O=C1CCC(N2C(=O)c3cccc(NCCc4cn(CCOCCOc5ccc(Cn6ccc7ccc(C(=O)NO)cc76)cc5)nn4)c3C2=O)C(=O)N1 (centres undefined)

- Activity [4]: 80.2%
- Activity [9]: 39.4%
Compound: O=C1CCC(N2C(=O)c3cccc(NCc4cn(CCOCCOCCOCCOCCOc5ccc(Cn6ccc7ccc(C(=O)NO)cc76)cc5)nn4)c3C2=O)C(=O)N1 (centres undefined)

- Activity [4]: 70.8%
- Activity [9]: 42.5%
Compound: O=C1CCC(N2C(=O)c3cccc(NCc4cn(CCOCCOCCOc5ccc(Cn6ccc7ccc(C(=O)NO)cc76)cc5)nn4)c3C2=O)C(=O)N1 (centres undefined)
